Data reported in article PMC6736568, “Discovery of Novel Anti-cryptosporidial Activities From Natural Products by in vitro High-Throughput Phenotypic Screening” (Frontiers in Microbiology, 2019).
Where a name gives a salt, the structure may show the parent alone. Read-outs that look alike come from different tables or passages of the source.

Legend:
Cryptosporidium parvum = assay: qRT-PCR assay of the growth of C. parvum in vitro in HCT-8 host cells (primary and secondary screening, EC50); format: cell-based; settings: Cryptosporidium parvum, HCT-8; for inhibition at 10 µM: primary screening at 10 uM, read-out: Inhibition (%); for inhibition at 3.3 µM: secondary screening at 3.3 uM, read-out: % Inhibition (3.3 uM)
[1] = primary screening at 10 uM, treated vs control

| SMILES | inhibition at 10 µM (Cryptosporidium parvum) [%] | Hs18S ΔCT (HCT-8 host cells (Hs18S); human, 41 h, 10 μM) | cytotoxicity at 41 h, 10 µM (in vitro; human) [%] | inhibition at 3.3 µM (Cryptosporidium parvum) [%] | Hs18S ΔCT (HCT-8 host cells (Hs18S); [1]) | cytotoxicity at 10 µM (in vitro) [%] | cytotoxicity at 41 h, 10 µM (in vitro) [%] |
| --- | --- | --- | --- | --- | --- | --- | --- |
| C=C1CC[C@@H]2[C@](C)(CO)[C@H](O)CC[C@@]2(C)[C@@H]1C/C=C1/C(=O)OC[C@H]1O [ANDROGRAPHOLIDE] | 38.8 | 0.08 | 5.3 | – | – | – | – |
| COc1c(-c2coc3cc4c(cc3c2=O)CC(O)C(C)(C)O4)ccc2c1C=CC(C)(C)O2 (stereo not drawn) [MUNDULONE] | 61.8 | 0.22 | 14.4 | -43 | – | – | – |
| C=C[C@H]1C[N@@]2CC[C@H]1C[C@@H]2[C@@H](O)c1ccnc2ccc(OC)cc12 [QUINIDINE GLUCONATE] | 11.2 | -0.03 | -2 | – | – | – | – |
| CC(=O)O[C@H]1CC[C@]2(C)[C@H]3CC=C4[C@@H]5CC(C)(C)CC[C@]5(C)CC[C@@]4(C)[C@]3(C)CC[C@H]2C1(C)C [beta-AMYRIN ACETATE] | 11.3 | 0.01 | 0.5 | – | – | – | – |
| CC1=CCc2c(cc3oc(C)cc(=O)c3c2O)OC1 [PTAEROXYLIN] | -20.7 | -0.13 | -9.7 | – | – | – | – |
| COc1c2ccoc2c(OC)c2oc(=O)ccc12 [ISOPIMPINELLIN] | -23.2 | -0.24 | -18.1 | – | – | – | – |
| C[C@H](CCC(=O)O)[C@H]1CC[C@H]2[C@@H]3[C@H](O)C[C@@H]4C[C@H](O)CC[C@]4(C)[C@H]3CC[C@]12C [CHENODIOL] | 77.7 | 0.27 | 17.2 | – | – | – | – |
| O=c1cc(-c2ccccc2)oc2cc(O)cc(O)c12 [CHRYSIN] | 20.3 | 0.14 | 9.3 | – | – | – | – |
| COc1c(O)cccc1O [2-METHOXYRESORCINOL] | 20.3 | -0.20 | -15 | – | – | – | – |
| CC1=C2[C@H]3OC(=O)[C@@H](C)[C@@H]3CC[C@@]2(C)C=CC1=O [SANTONIN] | 9.41 | – | – | – | 0.18 | 11.8 | – |
| CC1(C)C[C@@H]2C(=O)CC[C@H]3O[C@]3(C)CC[C@H]21 [KOBUSONE] | -24.4 | 0.01 | 0.5 | – | – | – | – |
| COc1c2c(cc3occ(-c4ccc5c(c4)OCO5)c(=O)c13)OC(C)(C)C=C2 [METHYL ROBUSTONE] | -44.6 | -0.08 | -5.4 | – | – | – | – |
| C[C@@]12C[C@@]3(O)O[C@@H](O1)[C@]1(COC(=O)c4ccccc4)[C@H]3C[C@@]12O[C@@H]1O[C@H](CO)[C@@H](O)[C@H](O)[C@H]1O [PEONIFLORIN] | -19.9 | -0.11 | -7.6 | – | – | – | – |
| CC(C)=CCc1c(O)cc2oc(C)cc(=O)c2c1O [PEUCENIN] | 2.08 | -0.39 | -31.3 | – | – | – | – |
| COc1c2ccoc2nc2c(OC)c(OCC(O)C(C)(C)O)ccc12 (stereo not drawn) [EVOXINE] | -7.37 | 0.11 | 7 | – | – | – | – |
| O=c1[nH]cnc2nc[nH]c12 [HYPOXANTHINE] | 23.2 | 0.22 | 14.3 | – | – | – | – |
| Nc1ncnc2c1ncn2[C@@H]1O[C@H](COP(=O)(O)O)[C@@H](O)[C@H]1O [ADENOSINE PHOSPHATE] | 23.5 | -0.16 | -11.8 | – | – | – | – |
| C=C1C(=O)O[C@@H]2C[C@@]3(C)CCC[C@H](C)C3=C[C@H]12 [HELENINE] | -20 | 0.10 | 6.4 | – | – | – | – |
| CC(=O)Oc1c2c(c(CC=C(C)C)c3c1C(=O)C1=C[C@@H]4CC5C(C)(C)OC(C/C=C(\C)C(=O)O)(C4=O)[C@@]15O3)OC(C)(CCC=C(C)C)C=C2 (stereo partly drawn) [ACETYL I[…]] | 95.2 | – | – | 27 | 1.57 | 66.4 | – |
| COc1ccc(/C=C/c2cc(O)cc(O)c2)cc1 [RESVERATROL 4'-METHYL ETHER] | -37.3 | – | – | – | -0.37 | -29 | – |
| NC[C@H]1O[C@H](O[C@H]2[C@H](O)[C@@H](O[C@H]3O[C@H](CO)[C@@H](O)[C@H](N)[C@H]3O)[C@H](N)C[C@@H]2N)[C@H](N)C[C@@H]1O [TOBRAMYCIN] | 4.08 | -0.49 | -40.8 | – | – | – | – |
| C[C@H]1O[C@H](O[C@H]2[C@H](O)[C@@H](O)[C@@H](O[C@H]3[C@H](O)[C@@H](O)C(O)O[C@@H]3CO)O[C@@H]2CO)[C@H](O)[C@@H](O)[C@@H]1N[C@H]1C=C(CO)[C@@H](O)[C@H](O)[C@H]1O (stereo partly drawn) [ACARBOSE] | 37.8 | 0.39 | 23.6 | – | – | – | – |
| Cc1cc(O)c(C=O)c2c1C(=O)Oc1c(C)c(O)c3c(c1O2)C(O)OC3=O (stereo not drawn) [NORSTICTIC ACID] | -20.8 | -0.18 | -13.4 | – | – | – | – |

| SMILES | inhibition at 10 µM (Cryptosporidium parvum) [%] | Hs18S ΔCT (HCT-8 host cells (Hs18S); human, 41 h, 10 μM) | cytotoxicity at 41 h, 10 µM (in vitro; human) [%] | inhibition at 3.3 µM (Cryptosporidium parvum) [%] | Hs18S ΔCT (HCT-8 host cells (Hs18S); [1]) | cytotoxicity at 10 µM (in vitro) [%] | cytotoxicity at 41 h, 10 µM (in vitro) [%] |
| --- | --- | --- | --- | --- | --- | --- | --- |
| CCCCCCCCCCCCCCCCCCCCCCO [DOCOSANOL] | 24.4 | -0.38 | -30.5 | – | – | – | – |
| O=c1c2ccccc2oc2ccccc12 [XANTHONE] | 0.45 | 0.13 | 8.9 | – | – | – | – |
| CC[C@@]1(O)C[C@H](O)c2c(cc3c(c2O)C(=O)c2c(O)ccc(O)c2C3=O)[C@H]1C(=O)OC [RUTILANTINONE] | 92 | – | – | -3 | -0.54 | -45.2 | – |
| COc1ccc2c(c1)OC/C(=C\c1ccc(OC)c(O)c1)C2=O [SAPPANONE A DIMETHYL ETHER] | 11.1 | 0.18 | 11.8 | – | – | – | – |
| C[C@@H]1CC[C@@]2(OC1)O[C@H]1[C@@H](O)[C@H]3[C@@H]4CC[C@H]5C[C@@H](O[C@@H]6O[C@H](CO)[C@H](O[C@@H]7O[C@H](CO)[C@@H](O)[C@H](O[C@@H]8OC[C@@H](O)[C@H](O)[C@H]8O)[C@H]7O[C@@H]7O[C@H](CO)[C@H](O)[C@H](O[C@@H]8O[C@H](CO)[C@@H](O)[C@H](O)[C@H]8O)[C@H]7O)[C@H](O)[C@H]6O)[C@H](O)C[C@]5(C)[C@H]4CC[C@]3(C)[C@H]1[C@@H]2C [DIGITONIN] | -16.6 | – | – | – | -0.12 | -8.8 | – |
| CC(=O)Oc1ccc(/C=C/c2cc(OC(C)=O)cc(OC(C)=O)c2)cc1 [TRIACETYLRESVERATROL] | -64.8 | – | – | – | 0.19 | 12.4 | – |
| COc1cc(C)c2c(c1C=O)Oc1c(c(C)c(O)c3c1C(O)OC3=O)OC2=O (stereo not drawn) [STICTIC ACID] | -0.45 | 0.08 | 5.5 | – | – | – | – |
| C=CC1=C(C)/C(=C/c2[nH]c(Cc3[nH]c(/C=C4\NC(=O)C(C)=C4C=C)c(C)c3CCC(=O)O)c(CCC(=O)O)c2C)NC1=O [BILIRUBIN] | -7.55 | -0.01 | -0.9 | – | – | – | – |
| [H]/N=C(/N)N[C@H]1[C@H](O)[C@@H](O)[C@H](O[C@@H]2O[C@@H](C)[C@](O)(C=O)[C@H]2O[C@@H]2O[C@@H](CO)[C@H](O)[C@@H](O)[C@@H]2NC)[C@@H](N/C(N)=N\[H])[C@@H]1O [STREPTOMYCIN SULFATE] | 15.4 | -0.10 | -7.1 | – | – | – | – |
| C=C(C)[C@H]1COc2cc3oc(=O)ccc3cc2O1 [OBLIQUIN] | 1.63 | – | – | – | -0.33 | -25.7 | – |
| CC(C)CCC[C@@H](C)[C@H]1CC[C@H]2[C@@H]3CC(=O)[C@H]4C[C@@H](O)CC[C@]4(C)[C@H]3CC[C@]12C [5alpha-CHOLESTAN-3beta-OL-6-ONE] | -27.8 | – | – | – | 0.53 | – | 30.6 |
| C[C@H]1[C@H](C)CC[C@]2(C(=O)O)CC[C@]3(C)C(=CC[C@@H]4[C@@]5(C)C[C@@H](O)[C@H](O)[C@@](C)(CO)[C@@H]5CC[C@]43C)[C@H]12 [ASIATIC ACID] | 25.1 | -0.29 | -22.7 | – | – | – | – |
| C=CC1=C(C)c2cc3[nH]c(cc4nc(cc5[nH]c(cc1n2)c(C)c5CCC(=O)O)C(CCC(=O)O)=C4C)c(C)c3C=C [PROTOPORPHYRIN IX] | -20.6 | 0.00 | -0.1 | – | – | – | – |
| COc1cc(O)c(C)c(O)c1 [2,6-DIHYDROXY-4-METHOXYTOLUENE] | 19 | 0.06 | 4.4 | – | – | – | – |
| CN(C)Cc1c[nH]c2ccccc12 [GRAMINE] | -43.9 | – | -33.5 | – | -0.42 | – | – |
| COc1ccc2c(=O)c(OC)c(-c3ccccc3)oc2c1 [3,7-DIMETHOXYFLAVONE] | 49.7 | -0.21 | -15.4 | – | – | – | – |
| CC/C=C\C/C=C\C/C=C\C/C=C\C/C=C\C/C=C\CCC(=O)O [DOCONEXENT] | -24.5 | -0.06 | -4 | – | – | – | – |
| CC(=O)O[C@H]1CC[C@@]2(C)[C@@H](CC[C@@H]3[C@@H]2CC(=O)[C@]2(C)[C@@H]4[C@H](C[C@@H]32)O[C@]2(CC[C@@H](C)CO2)[C@H]4C)C1 [HECOGENIN ACETATE] | 6.66 | -0.05 | -3.7 | – | – | – | – |
| Nc1nc2ncc(CNc3ccc(C(=O)N[C@@H](CCC(=O)O)C(=O)O)cc3)nc2c(=O)[nH]1 [FOLIC ACID] | 3.63 | 0.02 | 1.3 | – | – | – | – |
| Cc1cc(O)cc(=O)o1 | 15.4 | – | – | – | 0.04 | 3.1 | – |
| COC(=O)C1=CCCN(C)C1 [ARECOLINE HYDROBROMIDE] | -6.72 | – | – | – | -0.47 | -38.7 | – |
| CC[C@H](C)C(=O)O[C@H]1CCC=C2C=C[C@H](C)[C@H](CC[C@@H]3C[C@@H](O)CC(=O)O3)[C@H]21 [MEVASTATIN] | 24 | 0.22 | 14.4 | – | – | – | – |
